Laboratory results as given in patent US10576126B2, “Antitumor agent” (NATIONAL UNIVERSITY CORPORATION ASAHIKAWA MEDICAL UNIVERSITY, priority 2016, dated 2020).
“Also recorded” adds a separate entry of the source. Where two headings read alike, the source gives them in different places. Where a SMILES comes first, the peptide text is derived from it. [ ]: non-standard residue; d: D form. Orn(N5-OH,N5-Ac) = CC(=O)N(O)CCC[C@H](N)C(=O)O

Columns and labels:
[1] = tested on: colorectal cancer cell line Caco2/bbe; assay: SRB assay, colorectal cancer cell line Caco2/bbe; format: cell-based
Method: (§1) L. casei ATCC334, LGG ATCC53103, L. coryniformis ATCC25600 and L. fermentis ATCC23271 were purchased from ATCC. These microorganisms were cultured overnight at 37° C. using MRS broth (Difco) and then transferred to MEM and cultured for one day. The cultured medium was centrifuged at 5,000×g for 10 minutes to collect the supernatant, which was filtered through a 0.2 μm filter and used as the culture supernatant in the following examples.
(§2) By using the colorectal cancer cell lines Caco2/bbe, SKCO-1 and SW620 as test cells and the culture supernatants of LGG ATCC53103, L. casei ATCC334, L. coryniformis ATCC25600 and L. fermentis ATCC23271 as measurement samples, an antitumor activity of each supernatant was measured by SRB-assay.

[2] = tested on: colorectal cancer cell line SKCO-1; assay: SRB assay, colorectal cancer cell line SKCO-1; format: cell-based; settings: SKCO-1, SRB assay
Method: as §1, §2

[3] = tested on: colorectal cancer cell line SW620; assay: SRB assay, colorectal cancer cell line SW620; format: cell-based
Method: as §1, §2
This fraction was subjected to mass spectrometry (TOF, ionization method: micro ESI) using Nano Frontier elD Liquid Chromatograpy Mass Spectrometer (Hitachi High-technologies), and a chart shown in FIG. 3A was obtained. The peak at m/z 763.2 in this chart was approximately consistent with that in the chart obtained for commercial ferrichrome (Sigma-Aldrich) by mass spectrometry in a similar mannar (FIG. 3B). By using commercially available ferrichrome as a measurement sample and the colorectal cancer cell line SW620 as a test cell, an antitumor activity was measured.

[4] = tested on: mouse primary intestinal epithelial cells; assay: SRB assay, mouse primary intestinal epithelial cells; format: cell-based
Method: Mouse primary intestinal epithelial cells were prepared and cultured according to the method as reported previously (Liu X et al., Am J Pathol. 2012 February; 180(2): 599-607).

[5] = tested on: colorectal cancer cell line HT29; assay: SRB assay, colorectal cancer cell line HT29; format: cell-based
[6] = tested on: colorectal cancer cell line HCT116; assay: SRB assay, colorectal cancer cell line HCT116; format: cell-based
[7] = tested on: pancreatic cancer cell line bxpc3; assay: SRB assay, pancreatic cancer cell line bxpc3; format: cell-based
[8] = tested on: pancreatic cancer cell line suit2; assay: SRB assay, pancreatic cancer cell line suit2; format: cell-based
[9] = tested on: gastric cancer cell line MKN45; assay: SRB assay, gastric cancer cell line MKN45; format: cell-based
[10] = tested on: gastric cancer cell line SH-10-TC; assay: SRB assay, gastric cancer cell line SH-10-TC; format: cell-based
[11] = tested on: esophageal cancer cell line OE33; assay: SRB assay, esophageal cancer cell line OE33; format: cell-based
[12] = tested on: pancreatic cancer cell line KP3; assay: Antitumor activity, pancreatic cancer cell line KP3; format: cell-based
[13] = tested on: pancreatic cancer cell line KP1N; assay: Antitumor activity, pancreatic cancer cell line KP1N; format: cell-based
[14] = tested on: pancreatic cancer cell line KP3L; assay: Antitumor activity, pancreatic cancer cell line KP3L; format: cell-based
[15] = tested on: pancreatic cancer cell line Miapaca; assay: Antitumor activity, pancreatic cancer cell line Miapaca; format: cell-based
[16] = tested on: gastric cancer cell line MKN7; assay: Antitumor activity, gastric cancer cell line MKN7; format: cell-based
[17] = tested on: gastric cancer cell line MKN74; assay: Antitumor activity, gastric cancer cell line MKN74; format: cell-based
[18] = tested on: esophageal cancer cell line OE19; assay: Antitumor activity, esophageal cancer cell line OE19; format: cell-based
[19] = tested on: colorectal cancer cell line SW620; assay: SW620 subcutaneous transplantation in BALB/c-nude mice; format: in vivo; settings: 10 μg/day to the transplantation site, daily, observed for 9 days, vs PBS
Description: 2×10^6 cells of colorectal cancer cell line SW620 were transplanted subcutaneously into the back of BALB/c-nude mice. […] The appearance of the mice on day 1 after transplantation and on day 9 after transplantation are shown in FIG. 6, and the change in tumor mass volume is shown in FIG. 7, respectively.

[20] = tested on: gastric cancer cells MKN45; assay: MKN45 subcutaneous transplantation in BALB/c nude mice; format: in vivo; settings: 100 μg daily into the transplantation site, vs PBS
Method: Two groups of BALB/c nude mice (n=6/group) were transplanted with 1×10^6 gastric cancer cells MKN45 by subcutaneous injection into their back. Each day from the day following transplantation, 100 μg of ferrichrome dissolved in PBS in one group and PBS alone in the other group were administered into the transplantation site, and the mice were kept under normal breeding conditions for 21 days. Photographs of the transplantation site 1 day and 19 days after transplantation are shown in FIG. 19, and the change in tumor volume ratio when the tumor volume 1 day after transplantation set to 1 is shown in FIG. 20.

[21] = tested on: pancreatic cancer cell Suit2; assay: Suit2 subcutaneous transplantation in nude mice; format: in vivo; settings: 100 μg intraperitoneally once every two days for 12 days, vs PBS
Method: Two days after subcutaneous transplantation of 1×10^6 pancreatic cancer cell Suit2 in two groups of nude mice (n=5/group), 100 μg of ferrichrome dissolved in PBS in one group and PBS alone in the other group were administered intraperitoneally once every two days for 12 days under normal breeding Conditions. A photograph of the transplantation site 12 days after transplantation is shown in FIG. 21, and the change in volume of the tumor mass is shown in FIG. 22.

[22] = tested on: tumor in the large intestine; assay: AOM-DSS chemical carcinogenic mice, oral administration; format: in vivo; settings: 50 μg orally daily for 28 days, vs PBS
Method: Azoxymethane (AOM) was administered intraperitoneally at 10 mg/kg to BALB/c mice (6 weeks old, male). Following 1 week breeding after AOM treatment, mice were administered drinking water containing dextran sulfate sodium (DSS, MP bio) diluted to 1.5% with distilled water by free access for 1 week. After a 1-week wash-out period, mice were administered drinking water containing dextran sulfate sodium (DSS, MP bio) diluted to 1% with distilled water by free access for 1 week, to prepare chemical carcinogenic models. After one more 1-week wash-out period, 50 μg of ferrichrome diluted in PBS was orally administered daily for 28 days under normal breeding conditions. After breeding, the large intestine was taken out from the mice and the tumor area was measured.
(§3) Normal mice not administered AOM and DSS and chemical carcinogenic mice orally administered PBS alone were prepared, respectively, and the tumor area in the large intestine was measured in the same manner. Photographs showing the appearance of the large intestine in each mouse are shown in FIG. 23, and tumor areas in the large intestine are shown in FIG. 24.

[23] = tested on: tumor in the large intestine; assay: AOM-DSS chemical carcinogenic mice, intraperitoneal administration; format: in vivo; settings: 100 μg intraperitoneally once every 2 days for 49 days, vs PBS
Method: Azoxymethane (AOM) was administered intraperitoneally at 10 mg/kg to BALB/c mice (6 weeks old, male). Following 1 week breeding after AOM treatment, mice were administered drinking water containing dextran sulfate sodium (DSS, MP bio) diluted to 1% with distilled water by free access for 1 week. After a 1-week wash-out period, 100 μg of ferrichrome dissolved in PBS was intraperitoneally administered once every 2 days for 49 days under normal breeding conditions. After breeding, the large intestine was taken out from the mice and the tumor area was measured.
as §3, with “intraperitoneally” for “orally”, “25,” for “23,”, “26.” for “24.”

[24] = Blood AST, ALT and serum iron in C57/BL6 mice; format: in vivo; settings: oral or intravenous, 10 μg or 100 μg/day for 7 days, vs controls
Method: Blood AST (aspartate aminotransferase), ALT (alanine aminotransferase), and serum iron were measured in C57/BL6 mice (n=5) after oral or intravenous administration of 10 μg or 100 μg of ferrichrome/day for 7 days.

[25] = tested on: cleaved caspase-3; assay: Western blotting for cleaved caspase-3 in SW620; format: cell-based; settings: ferrichrome-treated SW620, Western blotting
Description: (§4) Total proteins recovered from the ferrichrome-treated colorectal cancer cell line SW620 using mammalian cell extraction kit (BioVision) were subjected to Western blotting using specific antibodies for cleaved caspase-3 and PARP (Cell Signaling), respectively.

[26] = tested on: PARP; assay: Western blotting for PARP in SW620; format: cell-based; settings: ferrichrome-treated SW620, Western blotting
Description: as §4

[27] = tested on: colorectal cancer cell line SW620; assay: TUNEL staining of SW620; format: cell-based; settings: SW620, 0.1 μg/mL
[28] = tested on: DNA damage-inducible transcript 3 (DDIT3); assay: DDIT3 expression in SW620; format: cell-based
Method: Changes in mRNA expression between ferrichrome-treated and untreated colorectal cancer cell line SW620 were measured by high-throughput sequence analysis using a MetaCore software program. […] DDIT3 is a protein known to be involved in Bax-Bak mitochondrial permeation and JNK signaling (Tabas I, Ron D. Nat Cell Biol. 2011 March; 13(3): 184-90).

[29] = tested on: phosphorylated JNK; assay: Western blotting for phosphorylated JNK in SW620; format: cell-based; settings: ferrichrome-treated SW620, Western blotting
[30] = tested on: rat intestinal epithelial cell line IEC-18; assay: SRB assay, rat intestinal epithelial cell line IEC-18; settings: rat intestinal epithelial cells
[31] = tested on: rat intestinal epithelial cell line IEC-18

For `CC(=O)N([O-])CCC[C@@H]1NC(=O)CNC(=O)CNC(=O)CNC(=O)[C@H](CCCN([O-])C(C)=O)NC(=O)[C@H](CCCN([O-])C(C)=O)NC1=O.[Fe+3]` [ferrichrome] (cyclo(GGG[Orn(N5-OH,N5-Ac)][Orn(N5-OH,N5-Ac)][Orn(N5-OH,N5-Ac)])), the “antitumor activity (cell density, OD at 510 nm)” value [1] was “dose-dependent antitumor activity”, the “antitumor activity (cell density, OD at 510 nm)” value [2] was “exhibited an antitumor activity” and the “antitumor activity (cell density, OD at 510 nm)” value [3] was “dose-dependent antitumor activity”. The “antitumor activity compared with 5-FU and cisplatin” value [3] was “higher antitumor activity”, the “antitumor activity (cell density, OD at 510 nm)” value ([3]; listed as Ferrichrome) was “strong antitumor activity” and the “effect on cell density of mouse primary intestinal epithelial cells” value [4] was “not significantly reducing cell densities”. For the same compound, the antitumor activity [5] was “exhibited an antitumor activity”, the antitumor activity [6] was “exhibited an antitumor activity” and the “antitumor activity (cell density, OD at 510 nm)” value [7] was “dose-dependent antitumor activity”. The “antitumor activity (cell density, OD at 510 nm)” value [8] was “dose-dependent antitumor activity”, the “antitumor activity (cell density, OD at 510 nm)” value [9] was “dose-dependent antitumor activity” and the “antitumor activity (cell density, OD at 510 nm)” value [10] was “dose-dependent antitumor activity”. For the same compound, the “antitumor activity (cell density, OD at 510 nm)” value [11] was “dose-dependent antitumor activity”, the antitumor activity [12] was “exhibit an antitumor activity” and the antitumor activity [13] was “exhibit an antitumor activity”. For the same compound, the antitumor activity [14] was “exhibit an antitumor activity”, the antitumor activity [15] was “exhibit an antitumor activity” and the antitumor activity [16] was “exhibit an antitumor activity”. The antitumor activity [17] was “exhibit an antitumor activity”, the antitumor activity [18] was “exhibit an antitumor activity” and the “growth of the tumor mass (tumor mass volume)” value [19] was “markedly inhibited the growth of the tumor mass”. The “tumor volume ratio (volume 1 day after transplantation set to 1)” value ([20]; 21 days) was “suppressed”, the “tumor mass size at the transplantation site” value [20] was “reduced to such an extent that it could be clearly distinguished by the naked eye” and the “increase in tumor volume” value [21] was “markedly suppressed”. The “tumor area in the large intestine” value [22] was “significantly suppressed”, the “tumor area in the large intestine” value [23] was “significantly suppressed” and the “blood ALT (alanine aminotransferase)” value [24] was “No significant changes”. The “blood AST (aspartate aminotransferase)” value [24] was “No significant changes”, the serum iron [24] was “No significant changes” and the “expression of cleaved caspase-3” value [25] was “increased dose-dependently”. The “expression of PARP” value [26] was “increased dose-dependently”, the “induction of apoptosis (TUNEL stain-positive cells)” value [27] was “induction of apoptosis was also confirmed” and the “expression of DDIT3” value ([28]; SW620, RT-PCR and Western blotting) was “enhanced expression”. For the same compound, the “mRNA expression level of DDIT3” value ([28]; SW620 treated vs untreated, high-throughput sequence analysis) was “remarkable change (increase in expression)”, the “expression of phosphorylated JNK” value [29] was “increased” and the “effect on cell density of IEC-18” value [30] was “not significantly reducing cell densities; also recorded: did not significantly affect the cell density”.
In the case of `N.N.[Cl][Pt][Cl]` [cisplatin], the “effect on cell density of IEC-18” value [31] is reported as “reduced a cell density”.
With `O=c1[nH]cc(F)c(=O)[nH]1` [5-FU, 5-fluorouracil] the “effect on cell density of IEC-18” value [31] was “reduced a cell density”.
